Results on one molecule are retold here after patent publication US9532972B2, “Increasing taxane sensitivity in cancer cells” (UNIVERSITY OF CENTRAL FLORIDA RESEARCH FOUNDATION, INC., priority 2012, dated 2017).

Type in all cases: cell-based
The subject of one assay is MCF7. Nature of the assay: Flow cytometry cell cycle analysis (propidium iodide DNA content). To be noted: MCF7 cells, 2 μM docetaxel, 24 hrs. The method, then:
(§1) To confirm the results of the MTS assay, while further elucidating the link between LIMK1 expression and taxane sensitivity, the effects of taxane treatment on cell cycle were analyzed. […] Using flow cytometry to monitor DNA content, the percentages of cells in each phase of the cell cycle including the percentage of cells in the sub-G1 population (FIGS. 2A and B) were determined. […] Although after 24 hrs of treatment, the difference between cells lines became more apparent.
(§2) In order to confirm the implication of LIMK1 induced resistance to taxane treatment, the expression of LIMK1 in each cell line was altered. […] Sensitivity to the taxane treatment was monitored by MTS assay.
(§3) Cells were seeded into 60 mm dishes and transfected the following day with one of the previous constructs. […] At each time point, media and cells were collected, washed, and fixed in 70% EtOH at −20° C. for at least 30 mins. Cells were then washed and stained for 30 mins in PBS containing: 2% BSA; 0.1% Pluronic F-68 (Sigma); Propidium Iodide [80 ug/mL] (Sigma); RNase [100 ug/mL]. Data was collected using FACSCalibur and analyzed using Cell Quest and ModFit software.
For orientation: In flow cytometry, cells or beads pass a laser one at a time.

The next assay concerns PC-3. The assay is described as above. The conditions noted are these: PC-3 cells, 2 μM docetaxel, 24 hrs. The method, then: as §1, §2, §3
The next assay concerns P69. The description is as above. The conditions noted are these: P69 cells, 2 μM docetaxel, 24 hrs. The procedure:
as §1, §3

The subject of a further assay is MDA-MB-231. Described as above. The conditions noted are these: MDA-MB-231 cells, 2 μM docetaxel, 24 hrs. The method, then:
as §1, §3

For assay [1], the system named is cleaved caspases 3, cleaved caspases 9 and cleaved PARP. The assay can be described thus: Western blot of apoptotic markers in docetaxel treated cell lysates. The source says:
FIG. 5: Higher LIMK1 expression diminished Taxane induced apoptotic response. PC3 cells were transiently transfected with either LIMK1 targeting shRNA construct or scrambled shRNA construct. […] After 24 hrs of DTX treatment, cell were harvested and apoptotic markers were monitored by immunoblot. Cyt c Release: PC3 and MCF7 were transiently transfected with LIMK1 and Scrambled shRNA constructs, P69 cells were transiently transfected with LIMK1 expression vector, LIMK1-shRNA vector or control vector. […] Following treatment cells were harvested and cytosolic, mitochondrial, and nuclear fractions were isolated. Presence of Cyt c in the cytosol was monitored by immunoblot of cytosolic fraction. Densinometry was used to determine relative values.
Western blots were probed with the following antibodies: mouse anti-human-GAPDH (Sigma); mouse anti-FLAG (Sigma); rabbit anti-human-LIMK1 (Santa Cruz; Santa Cruz, Calif.); mouse anti-human LIMK1 (BD Pharmingen, San Diego, Calif.); rabbit anti-Cleaved Caspase 3/9 and anti-Cleaved PARP (Cell Signaling); rabbit anti-human-alpha-tubulin (Sigma). Mouse anti-Cytochrome c (R&D Systems). Rabbit anti-Prohibitin (Abcam). Rabbit anti-Bax (Santa Cruz). Rabbit anti-Bcl2 (Cell Signaling)

Regarding `CC(=O)O[C@@]12CO[C@@H]1C[C@H](O)[C@@]1(C)C(=O)[C@H](O)C3=C(C)[C@@H](OC(=O)[C@H](O)[C@@H](NC(=O)OC(C)(C)C)c4ccccc4)C[C@@](O)([C@@H](OC(=O)c4ccccc4)[C@H]21)C3(C)C` [docetaxel], the sub-G1 population in the assay with MCF7 is recorded as 5%; in the assay on PC-3 it was 6%; with P69, 15%; in the assay on MDA-MB-231, 25%. Moreover, in assay [1], the “cleaved PARP” value was “increased levels”. Further, the “cleaved caspases 3” value in assay [1] is given as “increased levels”. The “cleaved caspases 9” value in assay [1] was “increased levels”.
